Experimental data: patent US20220338473A1, “USE OF BENZYL ALCOHOL AS A HERBICIDE” (INNOVI, priority 2019, published 2022)

Key:
Type in all cases: in vivo
[1] = test system: Carnation; assay: Systemic application through contact with the above-ground parts (half of plant treated); settings: potted, only one half sprayed, 4 g benzyl alcohol (200 L/Ha) in 4 g total (200 L/Ha)
Protocol: (§1) Assays were carried out on different plants by treatment on a fraction of the above-ground parts.
(§2) The assays were carried out on potted plants.
(§3) The systemic action was evaluated on several types of plants by treatment on a fraction of its above-ground parts.
(§4) The application of the product is carried out with a trigger spray bottle which makes it possible to spray 1 g of product per spraying, as microdroplets.
(§5) The treated plants are sprinkled on only one half, with different quantities of water comprising different quantities of pure benzyl alcohol (PanReac AppliChem—ITW Reagents). The untreated (control) plants are sprinkled with the same total quantity, but of water only.
(§6) The collapsing of the plant, the colour intensity and the diameter of the plant were measured as indicated in Example 1. The systemic effectiveness time was also measured in the following manner: • Systemic effectiveness time: 50% of the plant is initially treated with the product. The time necessary to see the first effects (systemically) appear on the part not treated (systemically) is determined.

[2] = test system: Grass; assay: as above; settings: potted, only one half sprayed, 16 g benzyl alcohol (800 L/Ha) in 20 g total (1000 L/Ha)
Protocol: as §1, §2, §3, §4, §5, §6

[3] = test system: Horned pansy; assay: as above; settings: potted, only one half sprayed, 0.1 g benzyl alcohol (5 L/Ha) in 12 g total (600 L/Ha)
Protocol: as §1, §2, §3, §4, §5, §6

[4] = test system: Hypoestes; assay: as above; settings: potted, only one half sprayed, 1 g benzyl alcohol (50 L/Ha) in 8 g total (400 L/Ha)
Protocol: as §1, §2, §3, §4, §5, §6

[5] = test system: Osteospermum; assay: as above; settings: potted, only one half sprayed, 2 g benzyl alcohol (100 L/Ha) in 2 g total (100 L/Ha)
Protocol: as §1, §2, §3, §4, §5, §6

[6] = test system: White petunia; assay: as above; settings: potted, only one half sprayed, 10 g benzyl alcohol (500 L/Ha) in 16 g total (800 L/Ha)
Protocol: as §1, §2, §3, §4, §5, §6

[7] = test system: Barley seeds; assay: Preventative activity (anti-germination), seeds on agar in Petri dish; settings: 0.35 g sprayed (benzyl alcohol pure, 700 L/Ha; glyphosate diluted at 0.5%)
Protocol: (§7) The assays were carried out on seeds sown on a Petri dish with respectively a control mode, an assay with benzyl alcohol and an assay with glyphosate herbicide (Gallup® super 360, Barclay).
(§8) The application of the product is carried out with a trigger spray bottle which makes it possible to spray 0.35 g of product per spraying, as microdroplets.
(§9) Seeds are placed on an agar gel in Petri dishes. 16 barley seeds, 24 rapeseed seeds, 18 wheat seeds, 10 maize seeds, 10 soybean seeds are positioned for each test.
(§10) The seeds are sprinkled either with 0.35 g water (equivalent 700 L/Ha) including 0.35 g pure benzyl alcohol (PanReac AppliChem—ITW Reagents) (equivalent 700 L/Ha pure benzyl alcohol), or with 0.35 g water for the control, or with 0.35 g glyphosate diluted at 0.5% for the glyphosate test.
(§11) The plants are observed at 0 and 11 days. The percentage of germination is the percentage of germinated seeds evaluated after 11 days.

[8] = test system: Maize seeds; assay: as above; settings: 0.35 g sprayed (benzyl alcohol pure, 700 L/Ha; glyphosate diluted at 0.5%)
Protocol: as §7, §8, §9, §10, §11

[9] = test system: Rapeseed seeds; assay: as above; settings: 0.35 g sprayed (benzyl alcohol pure, 700 L/Ha; glyphosate diluted at 0.5%)
Protocol: as §7, §8, §9, §10, §11

[10] = test system: Soybean seeds; assay: as above; settings: 0.35 g sprayed (benzyl alcohol pure, 700 L/Ha; glyphosate diluted at 0.5%)
Protocol: as §7, §8, §9, §10, §11

[11] = test system: Wheat seeds; assay: as above; settings: 0.35 g sprayed (benzyl alcohol pure, 700 L/Ha; glyphosate diluted at 0.5%)
Protocol: as §7, §8, §9, §10, §11

[12] = test system: Barley seeds; assay: Pre-emergence herbicide activity: germination of seeds sown at different depths
Protocol: as §2
Pure benzyl alcohol was used (PanReac AppliChem—ITW Reagents). The application of the product is carried out with a trigger spray bottle which makes it possible to spray 1 g of product per spraying as microdroplets.
Barley seeds (50 seeds per condition) are sown in potting soil at different depths (1, 2 and 3 cm). Then, 100% benzyl alcohol is sprayed on the earth (above the seeds) at different concentrations (10, 25, 50, 100, 200, 300 L/Ha).
The state of germination is observed at 0 and 11 days. The percentage of germination is the percentage of germinated seeds evaluated after 11 days.
The percentage of seeds germinated under each of the conditions is determined and if it is below 70%, pre-emergence use is not recommended.

[13] = test system: Thistle; assay: Preventative herbicide activity by sprinkling of the soil; parameters: key to Plants sprouted despite the preventative treatment: yes: the areas where the plants have sprouted despite the preventative treatment; no: the areas where the preventative treatment made it possible to prevent the sprouting of the identified plants; settings: for Plants sprouted despite the preventative treatment: soil sprinkling
Protocol: Areas identified as each year showing the presence of couch grass, grass, bindweeds and thistles were treated preventatively. […] The results are reported in Table 6 below, in which the note “yes” indicates the areas where the plants have sprouted despite the preventative treatment, and the note “no” indicates the areas where the preventative treatment made it possible to prevent the sprouting of the identified plants.

## OCc1ccccc1 [benzyl alcohol]
[1]
  A: systemic effectiveness time (whole plant affected): at 72 h
  B: collapsing (score and time): time to pass from score 5 (T0) to score 1: 86 h
  C: colour intensity (score and time): time to pass from score 5 (T0) to score 1: 96 h
  D: diameter (score and time): time to pass from score 5 (T0) to score 1: 120 h
[2]
  A: systemic effectiveness time (whole plant affected): at 96 h
  B: collapsing (score and time): time to pass from score 5 (T0) to score 1: 144 h
  C: colour intensity (score and time): time to pass from score 5 (T0) to score 1: 120 h
  D: diameter (score and time): time to pass from score 5 (T0) to score 1: 168 h
[3]
  A: systemic effectiveness time (whole plant affected): at 120 h
  B: collapsing (score and time): time to pass from score 5 (T0) to score 1: 168 h
  C: colour intensity (score and time): time to pass from score 5 (T0) to score 1: 144 h
  D: diameter (score and time): time to pass from score 5 (T0) to score 1: 168 h
[4]
  A: systemic effectiveness time (whole plant affected): at 96 h
  B: collapsing (score and time): time to pass from score 5 (T0) to score 1: 120 h
  C: colour intensity (score and time): time to pass from score 5 (T0) to score 1: 120 h
  D: diameter (score and time): time to pass from score 5 (T0) to score 1: 144 h
[5]
  A: systemic effectiveness time (whole plant affected): at 96 h
  B: collapsing (score and time): time to pass from score 5 (T0) to score 1: 144 h
  C: colour intensity (score and time): time to pass from score 5 (T0) to score 1: 120 h
  D: diameter (score and time): time to pass from score 5 (T0) to score 1: 144 h
[6]
  A: systemic effectiveness time (whole plant affected): at 24 h
  B: collapsing (score and time): time to pass from score 5 (T0) to score 1: 48 h
  C: colour intensity (score and time): time to pass from score 5 (T0) to score 1: 48 h
  D: diameter (score and time): time to pass from score 5 (T0) to score 1: 48 h
[7]
  Percentage of germination at 11 days: 0%
[8]
  Percentage of germination at 11 days: 0%
[9]
  Percentage of germination at 11 days: 0%
[10]
  Percentage of germination at 11 days: 0%
[11]
  Percentage of germination at 11 days: 0%
[12]; seeding depth 1 cm, 50 L/Ha benzyl alcohol sprayed on the earth
  Pre-emergence use prescribed (germination of sown seeds at 11 days not below 70%): yes (pre-emergence use is prescribed)
[12]; seeding depth 1 cm, 100 L/Ha benzyl alcohol sprayed on the earth
  Pre-emergence use prescribed (germination of sown seeds at 11 days not below 70%): no (pre-emergence use is not recommended)
[12]; seeding depth 1 cm, less than 50 L/Ha benzyl alcohol sprayed on the earth
  Pre-emergence use prescribed (germination of sown seeds at 11 days not below 70%): yes (pre-emergence use is prescribed)
[12]; seeding depth 2 cm, 50 L/Ha benzyl alcohol sprayed on the earth
  Pre-emergence use prescribed (germination of sown seeds at 11 days not below 70%): yes (pre-emergence use is prescribed)
[12]; seeding depth 2 cm, 100 L/Ha benzyl alcohol sprayed on the earth
  Pre-emergence use prescribed (germination of sown seeds at 11 days not below 70%): yes (pre-emergence use is prescribed)
[12]; seeding depth 2 cm, less than 50 L/Ha benzyl alcohol sprayed on the earth
  Pre-emergence use prescribed (germination of sown seeds at 11 days not below 70%): yes (pre-emergence use is prescribed)
[12]; seeding depth 3 cm, 50 L/Ha benzyl alcohol sprayed on the earth
  Pre-emergence use prescribed (germination of sown seeds at 11 days not below 70%): yes (pre-emergence use is prescribed)
[12]; seeding depth 3 cm, 100 L/Ha benzyl alcohol sprayed on the earth
  Pre-emergence use prescribed (germination of sown seeds at 11 days not below 70%): yes (pre-emergence use is prescribed)
[12]; seeding depth 3 cm, less than 50 L/Ha benzyl alcohol sprayed on the earth
  Pre-emergence use prescribed (germination of sown seeds at 11 days not below 70%): yes (pre-emergence use is prescribed)
[13]; preventative soil sprinkling
  Quantity of benzyl alcohol (sprinkling) that prevents sprouting: 110 L/Ha
[13]; 50 L/ha pure benzyl alcohol
  Plants sprouted despite the preventative treatment: yes
[13]; 70 L/Ha pure benzyl alcohol
  Plants sprouted despite the preventative treatment: yes
[13]; 110 L/Ha pure benzyl alcohol
  Plants sprouted despite the preventative treatment: no
[13]; 120 L/Ha pure benzyl alcohol
  Plants sprouted despite the preventative treatment: no
[13]; 130 L/Ha pure benzyl alcohol
  Plants sprouted despite the preventative treatment: no
[13]; 150 L/Ha pure benzyl alcohol
  Plants sprouted despite the preventative treatment: no
